Assay results: EP0562731A1, “Substituted pyridinesulfonamide compounds or their salts, process for preparing the same, and herbicides containing the same” (ISHIHARA SANGYO KAISHA, Ltd., priority 1992, dated 1993)

Assays:
Type in all cases: in vivo
velvet leaf [1] = assay: Test Example 3: foliar application pot test, percent growth inhibition by fresh weight of aerial part and Colby's value; settings: Abutilon theophrasti, velvet leaf 1-leaf stage, 20th day from foliar application, fresh weight of aerial part, read-out: Percent Growth Inhibition (%) Found
Description: (§1) 1/10000-are pot was filled with upland farming soil and sown with velvet leaf. When the plant reached the 1-leaf stage, a predetermined amount of the herbicide of the present invention diluted with 5 ℓ of water per are and admixed with 0.1 vol%, based on the aqueous solution, of an agricultural spreader ("Kusa Rino") was foliarly applied to the plant with a small spray gun. On the 20th day from the application, the aerial part of the plant was weighed to obtain a percent growth inhibition according to Equation (1) (found value) and a Colby's value (calculated value) according to Equation (2) (see Weed, Vol. 15, pp. 20-22 (1967)). Percent Growth Inhibition (%) = (1 -(Fresh Weight of Aerial Part of Plant in Treated Plot)/(Fresh Weight of Aerial Part of Plant in Untreated Plot)) x 100 [formula] Colby's Value (E) = α + β -(α x β)/(100) [formula]
(§2) Wherein α represents a percent growth inhibition when treated with an amount a (g/a) of herbicide A; β represents a percent growth inhibition when treated with amount b (g/a) of herbicide B; and E represents an expected percent growth inhibition when treated with a of herbicide A and b of herbicide B.

velvet leaf [2] = assay: Test Example 4: foliar application pot test, percent growth inhibition by fresh weight of aerial part and Colby's value; settings: Abutilon theophrasti, foliar, read-out: Percent Growth Inhibition (%) Found
Description: as §1, §2
(§3) 1/10000-are pot was filled with upland farming soil and sown with velvet leaf. When the plant reached the 1-leaf stage, a predetermined amount of the herbicide of the present invention diluted with 5 ℓ of water per are and admixed with 0.1 vol%, based on the aqueous solution, of an agricultural spreader ("Kusa Rino") was foliarly applied to the plant with a small spray gun. On the 20th day from the application, the aerial part of the plant was weighed to obtain a percent growth inhibition and a Colby's value in the same manner as in Test Example 3.

[3] = tested on: large crabgrass (Digitaria adscendens); assay: Test Example 5: foliar application pot test, percent growth inhibition by fresh weight of aerial part and Colby's value; settings: foliar, read-out: Percent Growth Inhibition (%) Found
Description: as §1, §2
as §3, with “large crabgrass (Digitaria adscendens).” for “velvet leaf.”, “2-leaf” for “1-leaf”

Which inhibition at 63 g/ha (velvet leaf [1]; 0.63 g/a) does the source give for `CC(C)N1C(=O)c2ccccc2NS1(=O)=O` [Bentazon, 3-(1-methylethyl)-(1H)-2,1,3-benzothiadiazin-4(3H)-one-2,2-dioxide, reference compound] here?
Its inhibition at 63 g/ha is 17%.

What about the inhibition at 125 g/ha (velvet leaf [1]; 1.25 g/a) of the same compound?
Its inhibition at 125 g/ha is 69%.

For `CSc1nnc(C(C)(C)C)c(=O)n1N` [Metribuzin, 4-amino-6-(1,1-dimethylethyl)-3-(methylthio)-1,2,4-triazin-5(4H)-one, reference compound], which inhibition at 16 g/ha (velvet leaf [1]; 0.16 g/a) is on record?
Its inhibition at 16 g/ha is 89%.

For `CON(C)C(=O)Nc1ccc(Cl)c(Cl)c1` [Linuron, 3-(3,4-dichlorophenyl)-1-methoxy-1-methylurea, reference compound], which inhibition at 12.5 g/ha (velvet leaf [2]) is on record?
Its inhibition at 12.5 g/ha is 35%.

What about the inhibition at 25 g/ha (velvet leaf [2]) of the same compound?
Its inhibition at 25 g/ha is 61%.

And the inhibition at 12.5 g/ha [3]?
Its inhibition at 12.5 g/ha is 23%.

And the inhibition at 25 g/ha [3]?
Its inhibition at 25 g/ha is 68%.

What about the inhibition at 50 g/ha [3] of the same compound?
Its inhibition at 50 g/ha is 79%.
